In ChEMBL document CHEMBL4680144, “N-thiadiazole-4-hydroxy-2-quinolone-3-carboxamides bearing heteroaromatic rings as novel antibacterial agents: Design, synthesis, biological evaluation and target identification” (Eur J Med Chem, 2020):
≈ marks a conversion by molar mass, not a printed value. Values belong to the compound of their own block, whether it stands above or below them.

How the values were obtained:
[1] = test system: Staphylococcus epidermidis; test: Antibacterial activity against methicillin-resistant Staphylococcus epidermidis clinical isolate 15-2 assessed as inhibition of bacterial growth incubated for 18 to 24 hrs by broth microdilution method; format: functional; details: time 18-24 hrs
Staphylococcus aureus [2] = test: Antibacterial activity against methicillin-resistant Staphylococcus aureus clinical isolate 15-1 assessed as inhibition of bacterial growth incubated for 18 to 24 hrs by broth microdilution method; format: functional; details: time 18-24 hrs
[3] = test system: Staphylococcus epidermidis; test: Antibacterial activity against methicillin-sensitive Staphylococcus epidermidis clinical isolate 15-3 assessed as inhibition of bacterial growth incubated for 18 to 24 hrs by broth microdilution method; format: functional; details: time 18-24 hrs
Staphylococcus aureus [4] = test: Antibacterial activity against methicillin resistant and vancomycin-intermediate sensitive Staphylococcus aureus ATCC 700788 assessed as inhibition of bacterial growth incubated for 18 to 24 hrs by broth microdilution method; format: functional; details: time 18-24 hrs
Staphylococcus aureus [5] = test: Antibacterial activity against wild type methicillin-sensitive Staphylococcus aureus ATCC 29213 assessed as inhibition of bacterial growth incubated for 18 to 24 hrs by broth microdilution method; format: functional; details: time 18-24 hrs
Staphylococcus aureus [6] = test: Antibacterial activity against methicillin-resistant Staphylococcus aureus clinical isolate 15-8 assessed as inhibition of bacterial growth incubated for 18 to 24 hrs by broth microdilution method; format: functional; details: time 18-24 hrs
Enterococcus faecalis [7] = test: Antibacterial activity against vancomycin-resistant Enterococcus faecalis ATCC 51575 assessed as inhibition of bacterial growth incubated for 18 to 24 hrs by broth microdilution method; format: functional; details: time 18-24 hrs
Enterococcus faecium [8] = test: Antibacterial activity against Enterococcus faecium clinical isolate 15-1 assessed as inhibition of bacterial growth incubated for 18 to 24 hrs by broth microdilution method; format: functional; details: time 18-24 hrs
Staphylococcus aureus [9] = test: Antibacterial activity against methicillin-resistant Staphylococcus aureus clinical isolate 15-6 assessed as inhibition of bacterial growth incubated for 18 to 24 hrs by broth microdilution method; format: functional; details: time 18-24 hrs
Staphylococcus aureus [10] = test: Antibacterial activity against methicillin-resistant Staphylococcus aureus clinical isolate 15-2 assessed as inhibition of bacterial growth incubated for 18 to 24 hrs by broth microdilution method; format: functional; details: time 18-24 hrs
[11] = test system: Staphylococcus epidermidis; test: Antibacterial activity against methicillin-sensitive Staphylococcus epidermidis clinical isolate 15-4 assessed as inhibition of bacterial growth incubated for 18 to 24 hrs by broth microdilution method; format: functional; details: time 18-24 hrs
Staphylococcus aureus [12] = test: Antibacterial activity against methicillin resistant and vancomycin-intermediate sensitive Staphylococcus aureus ATCC 700699 assessed as inhibition of bacterial growth incubated for 18 to 24 hrs by broth microdilution method; format: functional; details: time 18-24 hrs
[13] = test system: Staphylococcus epidermidis; test: Antibacterial activity against methicillin-resistant Staphylococcus epidermidis clinical isolate 15-1 assessed as inhibition of bacterial growth incubated for 18 to 24 hrs by broth microdilution method; format: functional; details: time 18-24 hrs
Staphylococcus aureus [14] = test: Antibacterial activity against methicillin-resistant Staphylococcus aureus clinical isolate 15-9 assessed as inhibition of bacterial growth incubated for 18 to 24 hrs by broth microdilution method; format: functional; details: time 18-24 hrs
Staphylococcus aureus [15] = test: Antibacterial activity against methicillin-resistant Staphylococcus aureus clinical isolate 15-7 assessed as inhibition of bacterial growth incubated for 18 to 24 hrs by broth microdilution method; format: functional; details: time 18-24 hrs
Staphylococcus aureus [16] = test: Antibacterial activity against methicillin-resistant Staphylococcus aureus clinical isolate 15-3 assessed as inhibition of bacterial growth incubated for 18 to 24 hrs by broth microdilution method; format: functional; details: time 18-24 hrs
Enterococcus faecalis [17] = test: Antibacterial activity against vancomycin-resistant Enterococcus faecalis ATCC 51299 assessed as inhibition of bacterial growth incubated for 18 to 24 hrs by broth microdilution method; format: functional; details: time 18-24 hrs
Enterococcus faecalis [18] = test: Antibacterial activity against Enterococcus faecalis clinical isolate 15-2 assessed as inhibition of bacterial growth incubated for 18 to 24 hrs by broth microdilution method; format: functional; details: time 18-24 hrs
[19] = test system: Staphylococcus epidermidis; test: Antibacterial activity against methicillin-resistant Staphylococcus epidermidis clinical isolate 15-3 assessed as inhibition of bacterial growth incubated for 18 to 24 hrs by broth microdilution method; format: functional; details: time 18-24 hrs
Enterococcus faecalis [20] = test: Antibacterial activity against vancomycin-resistant Enterococcus faecalis ATCC 700802 assessed as inhibition of bacterial growth incubated for 18 to 24 hrs by broth microdilution method; format: functional; details: time 18-24 hrs
Enterococcus faecium [21] = test: Antibacterial activity against Enterococcus faecium clinical isolate 15-2 assessed as inhibition of bacterial growth incubated for 18 to 24 hrs by broth microdilution method; format: functional; details: time 18-24 hrs
Enterococcus faecalis [22] = test: Antibacterial activity against Enterococcus faecalis clinical isolate 15-1 assessed as inhibition of bacterial growth incubated for 18 to 24 hrs by broth microdilution method; format: functional; details: time 18-24 hrs
[23] = Inhibition of Staphylococcus aureus Gyrase B using linear pBR322 DNA as substrate incubated for 30 mins in presence of ATP by ADP-Glo assay

Structure (SMILES): CCn1c(=O)c(C(=O)Nc2nnc(-c3cscn3)s2)c(O)c2ccccc21
- MIC [1]: 8 µg/mL (≈ 20 µM)
- MIC (Staphylococcus aureus [2]): 4 µg/mL (≈ 10 µM)
- MIC [3]: 8 µg/mL (≈ 20 µM)
- MIC (Staphylococcus aureus [4]): 4 µg/mL (≈ 10 µM)
- MIC (Staphylococcus aureus [5]): 0.78 µg/mL (≈ 1.95 µM)
- MIC (Staphylococcus aureus [6]): 4 µg/mL (≈ 10 µM)
- MIC (Enterococcus faecalis [7]): 32 µg/mL (≈ 80.1 µM)
- MIC (Enterococcus faecium [8]): 8 µg/mL (≈ 20 µM)
- MIC (Staphylococcus aureus [9]): 4 µg/mL (≈ 10 µM)
- MIC (Staphylococcus aureus [10]): 4 µg/mL (≈ 10 µM)
- MIC [11]: 4 µg/mL (≈ 10 µM)
- MIC (Staphylococcus aureus [12]): 4 µg/mL (≈ 10 µM)
- MIC [13]: 4 µg/mL (≈ 10 µM)
- MIC (Staphylococcus aureus [14]): 4 µg/mL (≈ 10 µM)
- MIC (Staphylococcus aureus [15]): 4 µg/mL (≈ 10 µM)
- MIC (Staphylococcus aureus [16]): 4 µg/mL (≈ 10 µM)
- MIC (Enterococcus faecalis [17]): 32 µg/mL (≈ 80.1 µM)
- MIC (Enterococcus faecalis [18]): 4 µg/mL (≈ 10 µM)
- MIC [19]: 4 µg/mL (≈ 10 µM)
- MIC (Enterococcus faecalis [20]): 32 µg/mL (≈ 80.1 µM)
- MIC (Enterococcus faecium [21]): 4 µg/mL (≈ 10 µM)
- MIC (Enterococcus faecalis [22]): 4 µg/mL (≈ 10 µM)
- IC50 [23]: 160 nM

Structure (SMILES): CCn1c(=O)c(C(=O)Nc2nnc(-c3ccc(OC)cc3)s2)c(O)c2ccccc21
- MIC (Staphylococcus aureus [5]): 3.12 µg/mL (≈ 7.39 µM)
- IC50 [23]: 1140 nM

Structure (SMILES): CCn1c(=O)c(C(=O)Nc2nnc(-c3ccccc3F)s2)c(O)c2ccccc21
- MIC (Staphylococcus aureus [5]): 12.5 µg/mL (≈ 30.5 µM)
- IC50 [23]: 990 nM

Structure (SMILES): CCCc1nnc(NC(=O)c2c(O)c3ccccc3n(CC)c2=O)s1
- MIC [1]: 4 µg/mL (≈ 11.2 µM)
- MIC (Staphylococcus aureus [2]): 2 µg/mL (≈ 5.58 µM)
- MIC [3]: 2 µg/mL (≈ 5.58 µM)
- MIC (Staphylococcus aureus [4]): 4 µg/mL (≈ 11.2 µM)
- MIC (Staphylococcus aureus [5]): 0.39 µg/mL (≈ 1.09 µM)
- MIC (Staphylococcus aureus [6]): 2 µg/mL (≈ 5.58 µM)
- MIC (Enterococcus faecalis [7]): 8 µg/mL (≈ 22.3 µM)
- MIC (Enterococcus faecium [8]): 2 µg/mL (≈ 5.58 µM)
- MIC (Staphylococcus aureus [9]): 2 µg/mL (≈ 5.58 µM)
- MIC (Staphylococcus aureus [10]): 2 µg/mL (≈ 5.58 µM)
- MIC [11]: 2 µg/mL (≈ 5.58 µM)
- MIC (Staphylococcus aureus [12]): 4 µg/mL (≈ 11.2 µM)
- MIC [13]: 2 µg/mL (≈ 5.58 µM)
- MIC (Staphylococcus aureus [14]): 4 µg/mL (≈ 11.2 µM)
- MIC (Staphylococcus aureus [15]): 4 µg/mL (≈ 11.2 µM)
- MIC (Staphylococcus aureus [16]): 2 µg/mL (≈ 5.58 µM)
- MIC (Enterococcus faecalis [17]): 8 µg/mL (≈ 22.3 µM)
- MIC (Enterococcus faecalis [18]): 4 µg/mL (≈ 11.2 µM)
- MIC [19]: 2 µg/mL (≈ 5.58 µM)
- MIC (Enterococcus faecalis [20]): 8 µg/mL (≈ 22.3 µM)
- MIC (Enterococcus faecium [21]): 4 µg/mL (≈ 11.2 µM)
- MIC (Enterococcus faecalis [22]): 4 µg/mL (≈ 11.2 µM)
- IC50 [23]: 270 nM

Structure (SMILES): CCn1c(=O)c(C(=O)Nc2nnc(-c3ccccc3C)s2)c(O)c2ccccc21
- MIC (Staphylococcus aureus [5]): 50 µg/mL (≈ 123 µM)
- IC50 [23]: 3180 nM

Structure (SMILES): CCn1c(=O)c(C(=O)Nc2nnc(-c3ccc(N(C)C)cc3)s2)c(O)c2ccccc21
- MIC (Staphylococcus aureus [5]): 3.12 µg/mL (≈ 7.16 µM)
- IC50 [23]: 2660 nM

Second part, the compound after the results:

- MIC (Staphylococcus aureus [5]): 100 µg/mL (≈ 229 µM)
- IC50 [23]: 2300 nM
Structure (SMILES): CCOc1ccc(-c2nnc(NC(=O)c3c(O)c4ccccc4n(CC)c3=O)s2)cc1

- MIC (Staphylococcus aureus [5]): 6.25 µg/mL (≈ 15.2 µM)
- IC50 [23]: 1810 nM
Structure (SMILES): CCn1c(=O)c(C(=O)Nc2nnc(-c3cccc(F)c3)s2)c(O)c2ccccc21

- MIC (Staphylococcus aureus [5]): 3.12 µg/mL (≈ 7.15 µM)
- IC50 [23]: 1690 nM
Structure (SMILES): CCOc1cccc(-c2nnc(NC(=O)c3c(O)c4ccccc4n(CC)c3=O)s2)c1
